{"source": "ChEMBL document CHEMBL3046964", "about": "“Synthesis of novel building blocks of 1H-pyrrolo[3,4-b]quinolin-3(2H)-one and evaluation of their antitumor activity” (Med Chem Res, 2013)", "key": {"SK-N-SH": {"system": "SK-N-SH", "assay": "Cytotoxicity against Homo sapiens (human) SK-N-SH cells assessed as growth inhibition after 48 hr by MTT assay", "format": "functional, cell-based"}, "A549": {"system": "A549", "assay": "Cytotoxicity against Homo sapiens (human) A549 cells assessed as growth inhibition after 48 hr by MTT assay", "format": "functional, cell-based", "conditions": "A549, 48 h"}}}
{"smiles": "O=C(O)Cc1ccc(/C=C/CN2Cc3cc4ccccc4nc3C2=O)cc1", "values": [{"measurement": "IC50", "setting": "SK-N-SH", "value": 56.6, "unit": "µM"}]}
{"smiles": "COc1cccc2c1C(=O)c1c(O)c3c(c(O)c1C2=O)C[C@@](O)(C(=O)CO)C[C@@H]3O[C@H]1C[C@H](N)[C@H](O)[C@H](C)O1", "note": "[DOXORUBICIN]", "values": [{"measurement": "IC50", "setting": "A549", "value": 24.3, "unit": "µM"}]}
{"smiles": "O=C(Cc1ccc(/C=C/CN2Cc3cc4ccccc4nc3C2=O)cc1)N1CCN(c2ccccc2)CC1", "values": [{"measurement": "IC50", "setting": "A549", "value": 53.5, "unit": "µM"}, {"measurement": "IC50", "setting": "SK-N-SH", "value": 51.9, "unit": "µM"}]}
{"smiles": "O=C(Cc1ccc(/C=C/CN2Cc3cc4ccccc4nc3C2=O)cc1)N1CCOCC1", "values": [{"measurement": "IC50", "setting": "A549", "value": 46.2, "unit": "µM"}, {"measurement": "IC50", "setting": "SK-N-SH", "value": 8.62, "unit": "µM"}]}
{"smiles": "O=C(Cc1ccc(/C=C/CN2Cc3cc4ccccc4nc3C2=O)cc1)N1CCCC1", "values": [{"measurement": "IC50", "setting": "SK-N-SH", "value": 57.2, "unit": "µM"}]}
{"smiles": "O=c1c2ccccc2nc2n1Cc1cc3ccccc3nc1-2", "note": "[LUOTONIN A]", "values": [{"measurement": "IC50", "setting": "A549", "value": 61.2, "unit": "µM"}, {"measurement": "IC50", "setting": "SK-N-SH", "value": 61.1, "unit": "µM"}]}
{"smiles": "O=C(Cc1ccc(CCCN2Cc3cc4ccccc4nc3C2=O)cc1)N1CCN(c2ccc([N+](=O)[O-])cc2)CC1", "values": [{"measurement": "IC50", "setting": "SK-N-SH", "value": 40.2, "unit": "µM"}]}
{"smiles": "COc1ccc(N2CCN(C(=O)Cc3ccc(CCCN4Cc5cc6ccccc6nc5C4=O)cc3)CC2)cc1", "values": [{"measurement": "IC50", "setting": "A549", "value": 68.8, "unit": "µM"}, {"measurement": "IC50", "setting": "SK-N-SH", "value": 48.9, "unit": "µM"}]}
{"smiles": "COc1ccc(N2CCN(C(=O)Cc3ccc(/C=C/CN4Cc5cc6ccccc6nc5C4=O)cc3)CC2)cc1", "values": [{"measurement": "IC50", "setting": "SK-N-SH", "value": 56.3, "unit": "µM"}]}
{"smiles": "CC(C)N(C(=O)Cc1ccc(/C=C/CN2Cc3cc4ccccc4nc3C2=O)cc1)C(C)C", "values": [{"measurement": "IC50", "setting": "A549", "value": 70.1, "unit": "µM"}, {"measurement": "IC50", "setting": "SK-N-SH", "value": 43.2, "unit": "µM"}]}
{"smiles": "O=C(Cc1ccc(/C=C/CN2Cc3cc4ccccc4nc3C2=O)cc1)NCCO", "values": [{"measurement": "IC50", "setting": "SK-N-SH", "value": 42.1, "unit": "µM"}]}
{"smiles": "O=C(Cc1ccc(/C=C/CN2Cc3cc4ccccc4nc3C2=O)cc1)N1CCCCC1", "values": [{"measurement": "IC50", "setting": "A549", "value": 67.8, "unit": "µM"}, {"measurement": "IC50", "setting": "SK-N-SH", "value": 38.3, "unit": "µM"}]}
{"smiles": "O=C(Cc1ccc(/C=C/CN2Cc3cc4ccccc4nc3C2=O)cc1)N1CCN(c2ccc([N+](=O)[O-])cc2)CC1", "values": [{"measurement": "IC50", "setting": "A549", "value": 43.8, "unit": "µM"}, {"measurement": "IC50", "setting": "SK-N-SH", "value": 56.2, "unit": "µM"}]}
{"smiles": "O=C(Cc1ccc(CCCN2Cc3cc4ccccc4nc3C2=O)cc1)N1CCN(c2ccccc2)CC1", "values": [{"measurement": "IC50", "setting": "A549", "value": 65.4, "unit": "µM"}, {"measurement": "IC50", "setting": "SK-N-SH", "value": 42, "unit": "µM"}]}
